# Laboratory results: US5475028A (Zaidan Hojin Seisan Kaihatsu Kagaku Kenkyusho, priority 1992, dated 1995)
# Assays:
# [1] = test system: Isolated liver cells of rats; assay: Anti-hepatitis test: disorder of the isolated liver cells, carbon tetrachloride; type: cell-based; conditions: isolated rat liver cells, carbon tetrachloride vapor; test substance 0.1 mg/ml solution, 1 ml added to 2 ml; supernatant; Table 2; n = 8; * p < 0.05
# Protocol: (2) Disorder of the isolated liver cells a. Carbon tetrachloride Isolated liver cells of rats were prepared by means of […] collagenase irrigation method, whereby a liver cell suspension was prepared to a concentration of 6×10^8 liver cells/mi. Into 2 ml of the suspension in an Erlenmeyer flask of a 10 ml capacity was put a test tube of about 0.5 capacity containing carbon tetrachloride to saturate the reaction system with carbon tetrachloride vapor, and after the flask was tightly stoppered, preincubation was carried out at 37° C. for 5 min. One ml of a test substance solution prepared at a concentration of 0.1 mg/ml Hunk's solution was added to the suspension of liver cells, while 1 ml of Hunk's solution was added to the control.
# [2] = test system: Isolated liver cells of rats; assay: Anti-hepatitis test: disorder of the isolated liver cells, antibody against rat liver cell membranes; type: cell-based; conditions: antiserum against rat liver cell membranes, test substance 0.1 mg/ml solution, 1 ml added to 2 ml, supernatant, Table 3, n = 8, * p < 0.05
# Protocol: (2) Disorder of the isolated liver cells
# b. Antibody against rat liver cell membranes
# Isolated liver cells of rats were prepared by means of Segren's collagenase irrigation method, whereby a liver cell suspension was prepared at a concentration of 6×10^8 liver cells/mi. An Erlenmeyer flask of a 10 ml capacity in which 2 ml of the suspension had been placed was saturated with 95% oxygen, and after the flask was tightly stoppered, preincubation was carried out at 37° C. for 5 min. One ml of a test substance solution prepared at a concentration of 0.1 mg/ml Hunk's solution was added to the liver cell suspension, while 1 ml of the Hunk's solution was added to the control, followed by incubation for another 5 min, and antiserum against rat liver cell membranes (a 50-fold diluted serum) was added. A specifically determined volume of the reaction solution was pipetted out 0 and 30 min after the initiation of reaction, respectively, and immediately centrifuged under 500 g for 30 seconds, and the ALT, AST and LDH as leached out into the supernatant liquid were determined for activity by the Lippie method.
# [3] = test system: Liver disorder (hepatopathy) in mice; assay: Anti-hepatitis test: liver disorder (hepatopathy) in mice, carbon tetrachloride; type: in vivo, dyy-strain male mice; conditions: carbon tetrachloride i.p., test substance 1.0 mg/ml i.p. 3 h later, blood at 24 h, Table 1, * p < 0.05
# Protocol: (1) Liver disorder (hepatopathy) in mice A group of 8 dyy-strain male mice (weighing 23 to 25 g), kept fasting from the previous day was treated by intraperitoneal injection of a 25% solution of carbon tetrachloride in olive oil at a dose of […] and thereafter allowed free access to food. Three hours after the administration of carbon tetrachloride, the mice were given a 1.0 mg/ml concentrated suspension of the test substance, as prepared in conjunction with powdered gum arabic, by intra-peritoneal injection at a dose of 0.1 ml/body weight. Twenty four hours after the administration of carbon tetrachloride, blood samples were drawn from the mice under anesthesia with ether through the abdominal descending aorta.
# [4] = test system: Stomach injury through water-immersion constraint stress; assay: Anti-ulcer test: stomach injury through water-immersion constraint stress; type: in vivo, male rats of KBL Wistar strain; conditions: rats; for Suppression rate: 30 min before water-soaking constraint, 7 h, ulcer length, * p < 0.05
# Protocol: (2) Stomach injury through water-immersion constraint stress
# Rats weighing 183 to 235 g were fasted with free access to water for 24 hours before being used in the experiment. The rats were divided into groups each consisting of 10 heads in such a way as their mean body weights were nearly uniform, stress-loaded by soaking the animals as placed in a stress cage of Univ. of Tokyo type in a water tank at 23° C. up to the xiphoid and sacrificed through cervical vertebrae dislocation 7 hours later. The stomachs were removed and treated with formalin, and individual ulcers formed in the glandula portion of the stomach were measured in length (mm), with the measured ulcer lengths being summed for each rat. The test substance was suspended in a 0.5% aqueous solution of sodium carboxymethylcellulose, and the suspension was given to the test group orally at a dose of 10 ml/kg body weight 30 min before the water-soaking constraint, whereas the vehicle alone was applied to the control group.
# mice = assay: Acute toxicity test; type: in vivo, Male, SLC:ICR (SPE) mice; conditions: oral
# Protocol: Male, SLC:ICR (SPE) mice weighing 20 g, divided into groups each consisting of 5 heads, were treated by oral administration of the test compound suspended in gum arabic at doses of 1,000 mg/kg, 1,500 mg/kg and 2,500 mg/kg test compound, followed by observation for any abnormalities.
# [5] = Overall anti-hepatitis, liver-function improving and anti-ulcer activities (summary of tests)
# [6] = test system: Stomach injury with hydrochloric acid/ethanol; assay: Anti-ulcer test: stomach injury with hydrochloric acid/ethanol; type: in vivo, male rats of KBL Wistar strain; conditions: rats; for Suppression rate: 30 min before hydrochloric acid/ethanol, ulcer length
# Protocol: (1) Stomach injury with hydrochloric acid/ethanol:
# Rats weighing 193 to 228 g were fasted with free access to water for 24 hours before being used in the experiment. The rats were divided into groups each consisting of 10 heads in such a way as their mean body weights were nearly uniform, treated through oral administration of hydrochloric acid/ethanol (0.15 mole hydrochloric acid solution in 80% ethanol) at a dose of 5 ml/kg body weight and sacrificed through cervical vertebrae dislocation 1 hour after administration. The stomachs were removed and treated with formalin, and individual ulcers formed in the glandula portion of the stomach were measured in length (mm), with the measured ulcer lengths being summed for each rat. The test substance was suspended in a 0.5% aqueous solution of sodium carboxymethylcellulose, and the suspension was given to the test group orally at a dose of 10 ml/kg body weight 30 min before administration of hydrochloric acid/ethanol, whereas the vehicle alone was applied to the control group.
Molecule,"ALT, mean ± S.D. [1]","AST, mean ± S.D. [1]","ALT, mean ± S.D. [2]","AST, mean ± S.D. [2]","LDH, mean ± S.D. [2]","ALT, mean ± S.D. [3]","AST, mean ± S.D. [3]","LDH, mean ± S.D. [3]",Suppression rate ([4]; 50 mg/kg oral),Suppression rate ([4]; 100 mg/kg oral),Suppression rate ([4]; 200 mg/kg oral),"UD50 ([4]; oral, water-immersion constraint stress, 95% C.L. 97.9~113, 420 min)",LD50 (mice),"deaths (mice; doses up to 2,500 mg/kg)","anti-hepatitis, liver-function improving and anti-ulcer activities [5]","suppression against increases in activities of ALT, AST and LDH ([5]; Tables 1 to 3, as compared with the control compounds currently in use)",Suppression rate ([6]; 50 mg/kg oral),"Suppression rate ([6]; 100 mg/kg oral, * p < 0.01)","Suppression rate ([6]; 200 mg/kg oral, * p < 0.01)","UD50 ([6]; oral, hydrochloric acid/ethanol, 95% C.L. 83.4~94.3, 60 min)"
N[C@@H](CCC(=O)N[C@@H](CS)C(=O)NCC(=O)O)C(=O)O [Glutathione],1176.1 ± 123.7 IU,321.7 ± 94.4 IU,2257.8 ± 581.6 IU,1759.4 ± 394.3 IU,2541.1 ± 563.4 IU,19423.1 ± 1042.3 IU,9643.6 ± 3874.3 IU,32392 ± 7906 IU,–,–,–,–,–,–,–,–,–,–,–,–
CC1(C)[C@@H](O[C@H]2O[C@H](C(=O)O)[C@@H](O)[C@H](O)[C@H]2O[C@@H]2O[C@H](C(=O)O)[C@@H](O)[C@H](O)[C@H]2O)CC[C@]2(C)[C@H]3C(=O)C=C4[C@@H]5C[C@@](C)(C(=O)O)CC[C@]5(C)CC[C@@]4(C)[C@]3(C)CC[C@@H]12 [Glycyrrhizin],1089.7 ± 210.2 IU,267.8 ± 78.1 IU,1764.8 ± 437.1 IU,1358.4 ± 324.1 IU,2163.1 ± 562.7 IU,8339.3 ± 2420.1 IU,8949.6 ± 4530.0 IU,26457 ± 11086 IU,–,–,–,–,–,–,–,–,–,–,–,–
CC(S)C(=O)NCC(=O)O (centres unmarked) [Thiopronine],1426.9 ± 199.5 IU,956.8 ± 219.5 IU,1826.5 ± 479.5 IU,1623.7 ± 432.8 IU,2583.7 ± 634.1 IU,4941.2 ± 1537.7 IU,4884.5 ± 1097.5 IU,26789 ± 9753 IU,–,–,–,–,–,–,–,–,–,–,–,–
Zinc-[bis(2-aminoethanesulfonic acid).bis(sodium 2-aminoethanesulfonate)] [FTZ],1107.1 ± 168.8 IU,345.7 ± 72.8 IU,1429.5 ± 327.8 IU,1025.8 ± 268.4 IU,1875.3 ± 437.1 IU,4265.7 ± 1347.6 IU,3215.8 ± 967.7 IU,15865 ± 5300.8 IU,26.4%,56.1%,64.5%,105 mg/kg,"> 2,500 mg/kg",did not cause any animal to die,"exhibits anti-hepatitis, liver-function improving and anti-ulcer activities",significantly enhanced suppression,32.1%,53.5%,74.9%,88.7 mg/kg
